pEC50: −log10 of the molar value.
Experiments:
mouse ileal loops = assay: CTx-induced fluid secretion in closed mouse ileal loops, nanoparticle-conjugated peptides; format: in vivo
Procedure: All in vivo studies were performed on 8-12 week old C57B1/6N mice anesthetized with isofluorane and kept at 37° C. via heating lamps and rectal thermal probes.
Effect on basal fluid transport and effect of Tenapanor. Mice operated on as above had 3-4 cm closed ileal loops inoculated with 150-μL PBS containing 400-nM nanoparticle-CP-2 or -N3SP-1Δ7. After 4 h, the loops were drained and inoculated with 150-μL PBS. 30 min later, the animals were sacrificed and loop weight/length determined. In parallel studies, Tenapanor (10 μM) was present in both incubation periods. Similar to the BODIPY-conjugated peptide studies, the effects of nanoparticle-CP-2 or N3SP-1Δ7 (4 μM) compared to PBS alone were determined on net fluid secretion produced by inoculation of 0.1-μg CTx. The nanoparticle-peptides plus 0.1-μg CTx in 150-μL PBS were inoculated in 3-4 cm long closed ileal loops. Additional controls included loops exposed only to 150-μL PBS and those only exposed to the CTx/PBS. 4 h later, the animals were sacrificed and loop weight/cm length was determined.

NHE3 [1] = assay: Effect of N-terminal truncations of N3SP-1 on NHE3 activity in human enteroids (BCECF-fluorometry); format: cell-based; details: human duodenal enteroids, Hill equation
Procedure: (§1) NHE3 activity in PS120, Caco-2/BBe cells and human jejunal enteroids was determined fluorometrically (Photon Technologies Incorporated) using the intracellular pH sensitive dye BCECF, as reported (Levine et al., 1993; Sarker et al., 2008; Foulke-Abel et al., 2020). PS120/HA3-NHE3 cells were seeded on glass cover slips and studied at 70-80% confluency. Caco-2/BBe/HA3-NHE3 cells were grown to confluency on Transwell inserts (polyester, 0.4-μm pore size) and studied approximately 14-16 days pod. Human duodenal enteroid monolayers on Transwell inserts were differentiated for 5 days in the absence of Wnt3a, R-spondin, and noggin as described (Noel et al., 2017; Staab et al., 2020).
(§2) Rates of Na^+/H^+ exchange were determined as Na^+-dependent alkalinization in the presence of 50-μM HOE-694 (to inhibit all other plasma membrane NHE isoforms) in HCO3-free solutions, with internal calibration using the nigericin/K+ method, as previously described (Sarker et al., 2008; Foulke-Abel et al., 2020). Kinetic analysis was used for PS120 cell studies (expressed as Vmax) and initial rates (ΔpH/min) for Caco-2/BBe cells, mouse intestine in vitro, and human enteroids. For in vitro mouse jejunal transport studies, NHE3 activity (in the presence of 50-μM HOE-694) was measured using SNARF-4F at 37° C. in a perfusion chamber using a two-photon microscope (Olympus FV1000) and 25× objective, as described (Murtazina et al., 2011).
Concentration dependent effects on NHE3 basal activity was determined using BCECF-fluorometry. Kinetic analysis was determined of extent of stimulation of basal NHE3 activity; analysis was by use of the Hill equation.
Given the ability of N3SP-1Δ7 to prevent CTx-induced fluid secretion in vivo (FIG. 3E) and to stimulate basal NHE3 activity and prevent cAMP inhibition in human enteroids (FIG. 4C), further studies were carried out with human enteroids to determine the shortest N3SP-1-related peptide that would stimulate human NHE3. A series of N3SP-1 N-terminal truncations was synthesized and concentration-dependent stimulation of NHE3 activity determined using human jejunal enteroids.

[2] = test system: differentiated human enteroid monolayers; assay: Nanoparticle-peptide uptake in human enteroid monolayers (confocal microscopy); format: cell-based; details: apical addition, 2 μM, 4 h uptake, differentiated human enteroids
Procedure: […] After varying times from 15 min to 4 hours, enteroids were washed three times with PBS to remove extracellular nanoparticles and wells were replenished with fresh serum-containing media.
At varying times after nanoparticle addition up to overnight, enteroids were serum-starved for 2 hours then fixed in 4% paraformaldehyde for 30 minutes. After washing with PBS, formaldehyde was neutralized with 20-mM glycine. Enteroids were then permeabilized in 0.1% saponin, 1% BSA for 30 minutes. Fixed and permeabilized enteroids were stained for biotinylated peptide using streptavidin conjugated AlexaFluor 488 (1:100) and Hoechst stain (1:200). Enteroids were thoroughly washed with PBS and mounted onto microscope slides. Uptake was visualized using an Olympus FV3000RS confocal microscope and 40× objective (Olympus, Tokyo, Japan).

NHE3 [3] = assay: NHE3 activity in differentiated human enteroid monolayers after nanoparticle delivery of peptide; format: cell-based
Procedure: as §1, §2
PBAE polymer and peptide were separately dissolved in pH 7.4 150-mM PBS and combined at a 1:1 volume ratio. Final concentrations of the components were 6-ng/μL peptide and 180-ng/μL polymer (30:1 polymer: peptide weight ratio). Polymer and peptide nanoparticles were allowed to self-assemble at room temperature for 10 minutes. For characterization, nanoparticles were diluted 1:5 in PBS. Hydrodynamic diameter and zeta potential were measured using a Malvern Zetasizer Pro (Malvern Panalytical, Malvern, UK). Stability was assessed by incubating nanoparticles at RT up to 45 minutes then measuring hydrodynamic diameter over 45 minutes. […]

mouse jejunum = details: in vivo
[4] = Nanoparticle characterization: hydrodynamic diameter, zeta potential, stability; format: physicochemical; details: CR5 with peptide, 30:1 polymer:peptide weight ratio
Procedure: PBAE polymer and peptide were separately dissolved in pH 7.4 150-mM PBS and combined at a 1:1 volume ratio. Final concentrations of the components were 6-ng/μL peptide and 180-ng/μL polymer (30:1 polymer: peptide weight ratio). Polymer and peptide nanoparticles were allowed to self-assemble at room temperature for 10 minutes. For characterization, nanoparticles were diluted 1:5 in PBS. Hydrodynamic diameter and zeta potential were measured using a Malvern Zetasizer Pro (Malvern Panalytical, Malvern, UK). Stability was assessed by incubating nanoparticles at RT up to 45 minutes then measuring hydrodynamic diameter over 45 minutes. Nanoparticles were made immediately prior to each experiment.

[5] = target: NHERF2 binding to NHE3 C-terminal peptides (Homo sapiens, UniProt Q15599); assay: NHE3 peptide-NHERF2 overlay assay; details: peptide at 5 times the concentration of NHERF2 and MBP-NHE3 fusion peptides, n=5
NHERF2 binding to NHE3 C-terminal peptides, sequence (Q15599 whole entry, the tested form may be a part): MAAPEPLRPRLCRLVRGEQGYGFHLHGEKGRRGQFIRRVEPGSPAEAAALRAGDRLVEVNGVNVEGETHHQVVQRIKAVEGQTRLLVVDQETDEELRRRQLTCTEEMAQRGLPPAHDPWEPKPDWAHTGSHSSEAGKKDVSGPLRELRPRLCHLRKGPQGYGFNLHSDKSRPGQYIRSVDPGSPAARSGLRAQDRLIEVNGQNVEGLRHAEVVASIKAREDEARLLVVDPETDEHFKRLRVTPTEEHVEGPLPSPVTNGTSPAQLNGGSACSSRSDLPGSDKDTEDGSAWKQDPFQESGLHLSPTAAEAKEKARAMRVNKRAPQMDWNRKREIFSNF
Procedure: Two NHE3 C-terminal peptides containing the N3SP-1 sequence were separated on SDS-Page gradient gels and purified NHERF binding determined. Equal concentrations of NHE3 peptides and NHERF2 were used. Prior to NHERF2 addition, the blots were overlayed with 5× the concentration of N3SP-1Δ7 vs CP2.
Binding of purified full-length GST-NHERF2 to two NHE3 C-terminal peptides that contain the N3SP-1 sequence was determined in the presence of equal concentrations of CP-2 compared to N3SP-1Δ7. CP-2 and N3SP-1Δ7 peptides were used at 5 times the concentration of the NHERF2 fusion protein and the MBP-NHE3 fusion peptides.

Substance: N3SP-1 lacking first seven N-terminal amino acids: RPSTVEASVSYLLRESASAVCLDMQSLEQRR [Peptide N3SP-1Δ7]
- reduction of cholera toxin induced secretion (mouse ileal loops; mouse, in vivo): approximately 42%
- effect on CTx-induced fluid in ileal loops (loop weight/length) (mouse ileal loops; nanoparticle-peptide 4 μM with 0.1-μg CTx, 4 hours): significantly less fluid
- Stimulation of NHE3 Activity (NHE3 [1]; basal NHE3 activity, BCECF-fluorometry): YES (39%)
- pEC50 (NHE3 [1]; stimulation of basal NHE3 activity): 6.81
- uptake and location in enteroid monolayers [2]: lack of uptake
- NHE3 activity after FSK, % of same peptide without FSK (NHE3 [3]; nanoparticles (250 nM) 18 h, FSK exposure, n=4): 88.0%
- increase of basal NHE3 activity compared to CP-2 (NHE3 [3]; nanoparticles added apically (250 nM) for 18 h, n=4, p=0.043): 36.0%
- effect on CTx-stimulated net fluid secretion (loop weight/cm) (mouse jejunum): did not alter the efficacy
- surface zeta potential (electrophoretic light scattering) [4]: 22.4±1.2 mV
- nanoparticle diameter (DLS) ([4]; aqueous): 385±30 nm
- NHERF2 binding to NHE3 C-terminal peptides compared to control peptide CP-2 [5]: preferentially reduces NHERF2 binding
- NHERF2 binding to NHE3 C-terminal peptides compared to control peptide CP-2 ([5]; listed as N3SP-147): significantly reduced NHERF2 binding
